Laboratory results as given in patent US20170097349A1 (priority 2010, published 2017).

Tested on: whole blood from TB-reactor and BCG-vaccinated animals (IFN-γ response)
Format: cell-based, cattle

Substance	recognition in TB-reactor animals not responding to peptides #42 or #55	further results
EAEHQAIIRDVLTASDFWGG [compound 29]	recognised in TB-reactor animals that failed to respond to peptides #42 or #55	–
LGRNFQVIYEQANAHGQKVQ [peptide #33]	recognised in TB-reactor animals that failed to respond to peptides #42 or #55	–
QANLGEAAGTYVAADAAAAS [peptide #55]	–	responder frequency, TB-reactor animals: 36%
RDVLAAGDFWGGAGSVACQE [peptide #42]	–	responder frequency, TB-reactor animals: 50%
RNIVNMLHGVRDGLVRDANN [compound 20]	recognised in TB-reactor animals that failed to respond to peptides #42 or #55	–
SAELPDWLAANRGLAPGGHA [peptide #64]	recognised in TB-reactor animals that failed to respond to peptides #42 or #55	immunogenicity in BCG-vaccinated animals on re-screen of Sec#1 components: immunogenic in some BCG-vaccinated animals
Staphylococcal enterotoxin B [SEB, reference compound]	–	IFN-γ response in TB-reactor and BCG-vaccinated animals: all TB-reactor and BCG-vaccinated animals responded
